Laboratory results: patent publication US12085564B2, “Assay to determine in vivo receptor occupancy” (BRISTOL-MYERS SQUIBB COMPANY, priority 2018, dated 2024)

Target: T1, Recombinant BTK (Homo sapiens, UniProt Q06187)
T1 construct: purchased Life Technologies (Carlsbad, CA) PV3587
Assay: Preparation of DB-BTK / QB-BTK reference standards: covalent reaction of recombinant BTK with excess drug or quencher
Assay type: biochemical
Conditions: recombinant BTK 5.9 μM, excess amount of drug, RT for 1 h
Description: Recombinant BTK (5.9 μM, 200 μL) was combined with 400 μL of PBS, and then spiked with 15 μL of 1.0 mg/mL drug solution (compound shown in FIG. 1A) in acetonitrile (2701 μM drug, 15 μL). The solution was then incubated at RT for 1 h, resulting in a DB-BTK concentration of 1919 nM.
Recombinant BTK (5.9 μM, 200 μL) was combined with 400 μL of PBS, and then spiked with 15 μL of 1.0 mg/mL quencher solution (compound shown in FIG. 1B) in acetonitrile (2806 μM quencher, 15 μL). The solution was incubated at RT for 1 h, resulting in a QB-BTK concentration of 1919 nM.

T1 sequence (Q06187 whole entry): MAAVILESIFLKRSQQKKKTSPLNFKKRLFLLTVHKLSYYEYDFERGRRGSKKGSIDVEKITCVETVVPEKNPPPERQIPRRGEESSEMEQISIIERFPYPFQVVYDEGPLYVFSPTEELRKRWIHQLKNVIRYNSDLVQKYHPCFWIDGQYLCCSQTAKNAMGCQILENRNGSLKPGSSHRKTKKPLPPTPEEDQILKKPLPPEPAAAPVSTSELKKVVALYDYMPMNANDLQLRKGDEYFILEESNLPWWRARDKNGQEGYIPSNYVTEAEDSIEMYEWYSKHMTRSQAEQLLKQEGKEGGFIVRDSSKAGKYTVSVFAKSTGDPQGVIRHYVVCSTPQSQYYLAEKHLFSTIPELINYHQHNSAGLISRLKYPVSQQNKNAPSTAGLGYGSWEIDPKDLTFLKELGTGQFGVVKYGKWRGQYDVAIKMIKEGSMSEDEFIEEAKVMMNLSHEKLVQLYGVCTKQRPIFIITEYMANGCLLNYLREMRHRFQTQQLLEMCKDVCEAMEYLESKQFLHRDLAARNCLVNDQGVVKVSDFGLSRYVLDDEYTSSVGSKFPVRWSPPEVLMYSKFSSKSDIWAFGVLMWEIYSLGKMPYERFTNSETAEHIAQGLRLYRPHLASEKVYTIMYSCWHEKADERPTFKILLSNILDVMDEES

conversion of free BTK to DB-BTK: ~100%
Structure (SMILES): CC#CC(=O)N[C@H]1CCCN(c2c(F)cc(C(N)=O)c3[nH]c(C)c(C)c23)C1 [compound shown in FIG. 1A]
